Reference: article PMC4157719, “Arabidopsis membrane-associated acyl-CoA-binding protein ACBP1 is involved in stem cuticle formation” (Journal of Experimental Botany, 2014)
Read-outs that look alike come from different tables or passages of the source.

Target: T1, rACBP1 ((His)6-tagged recombinant AtACBP1) (Arabidopsis thaliana, UniProt Q9SM23)
T1 construct: gene ACBP1; (His)6-tagged, soluble fraction of E. coli BL21(DE3), Ni-NTA purified
T1 sequence (Q9SM23 1-338): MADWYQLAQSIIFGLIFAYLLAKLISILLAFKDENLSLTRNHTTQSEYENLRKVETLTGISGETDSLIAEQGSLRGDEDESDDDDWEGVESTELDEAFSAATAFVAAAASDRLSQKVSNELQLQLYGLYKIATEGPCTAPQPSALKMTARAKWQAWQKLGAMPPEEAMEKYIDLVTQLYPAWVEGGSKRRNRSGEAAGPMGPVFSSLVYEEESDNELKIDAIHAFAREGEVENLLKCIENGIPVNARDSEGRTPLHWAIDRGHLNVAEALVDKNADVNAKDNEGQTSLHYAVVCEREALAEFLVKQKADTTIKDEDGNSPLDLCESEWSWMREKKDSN
Assay: isothermal titration calorimetry
Assay type: binding
Text: isothermal titration calorimetry on rACBP1 ((His)6-tagged recombinant AtACBP1)

[1] = 30 °C, single binding site model

Kd [µM]	Kd [1] [µM]	Compound
2.14 ± 0.13		CCCCCCCCCCCCCCCCCCCCCCCC(=O)SCCNC(=O)CCNC(=O)[C@H](O)C(C)(C)COP(=O)(O)OP(=O)(O)OC[C@H]1O[C@@H](n2cnc3c(N)ncnc32)[C@H](O)[C@@H]1OP(=O)(O)O [C24:0, C24:0-CoA]
1.69 ± 0.11		CCCCCCCCCCCCCCCCCCCCCCCCC(=O)SCCNC(=O)CCNC(=O)[C@H](O)C(C)(C)COP(=O)(O)OP(=O)(O)OC[C@H]1O[C@@H](n2cnc3c(N)ncnc32)[C@H](O)[C@@H]1OP(=O)(O)O [C25:0, C25:0-CoA]
1.94 ± 0.12		CCCCCCCCCCCCCCCCCCCCCCCCCC(=O)SCCNC(=O)CCNC(=O)[C@H](O)C(C)(C)COP(=O)(O)OP(=O)(O)OC[C@H]1O[C@@H](n2cnc3c(N)ncnc32)[C@H](O)[C@@H]1OP(=O)(O)O [C26:0, C26:0-CoA]
	0.76 ± 0.15	C18:1-CoA
	0.83 ± 0.04	C18:2-CoA
	0.44 ± 0.01	C18:3-CoA
